The values below come from patent US7446199B2, “Compositions useful as inhibitors of protein kinases” (Vertex Pharmaceuticals Incorporated, priority 2003, dated 2008).

Assay [1] deals with T1, JAK3 (Homo sapiens, UniProt P52333).
T1 sequence (P52333 1-1124): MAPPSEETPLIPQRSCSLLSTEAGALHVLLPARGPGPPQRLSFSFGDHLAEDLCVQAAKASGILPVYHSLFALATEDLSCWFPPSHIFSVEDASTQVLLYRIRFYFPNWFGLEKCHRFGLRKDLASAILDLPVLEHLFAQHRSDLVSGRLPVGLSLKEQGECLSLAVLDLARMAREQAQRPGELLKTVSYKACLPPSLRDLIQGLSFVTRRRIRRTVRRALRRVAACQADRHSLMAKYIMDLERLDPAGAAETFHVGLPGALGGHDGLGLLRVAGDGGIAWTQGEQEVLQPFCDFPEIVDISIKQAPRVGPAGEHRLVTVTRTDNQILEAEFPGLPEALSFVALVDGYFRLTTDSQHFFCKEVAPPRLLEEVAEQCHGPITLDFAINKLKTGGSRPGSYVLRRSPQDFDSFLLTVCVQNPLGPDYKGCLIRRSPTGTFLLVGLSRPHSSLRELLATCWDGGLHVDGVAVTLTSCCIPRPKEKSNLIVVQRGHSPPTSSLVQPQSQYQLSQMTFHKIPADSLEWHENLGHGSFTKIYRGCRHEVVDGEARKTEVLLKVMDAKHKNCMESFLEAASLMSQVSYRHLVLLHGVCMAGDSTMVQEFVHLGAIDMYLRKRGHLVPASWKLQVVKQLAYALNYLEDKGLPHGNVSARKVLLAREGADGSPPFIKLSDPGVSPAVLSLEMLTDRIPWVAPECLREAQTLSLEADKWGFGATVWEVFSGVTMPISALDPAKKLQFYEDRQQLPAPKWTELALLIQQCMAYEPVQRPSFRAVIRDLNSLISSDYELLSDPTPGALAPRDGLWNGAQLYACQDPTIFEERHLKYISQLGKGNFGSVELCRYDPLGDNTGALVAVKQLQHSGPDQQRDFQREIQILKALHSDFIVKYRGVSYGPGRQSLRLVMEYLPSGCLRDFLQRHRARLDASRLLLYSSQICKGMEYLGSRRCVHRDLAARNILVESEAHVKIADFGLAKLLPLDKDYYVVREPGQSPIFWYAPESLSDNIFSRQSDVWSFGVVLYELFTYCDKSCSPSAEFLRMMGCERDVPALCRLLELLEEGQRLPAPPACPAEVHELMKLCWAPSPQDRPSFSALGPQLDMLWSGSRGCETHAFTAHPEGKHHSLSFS
As to the kind of experiment: JAK3 inhibition assay (ELISA, Poly (Glu, Ala, Tyr) coated plates). It counts as biochemical. To be noted: 2 mM ATP, 60 minutes at 30° C. Summed up: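 ELISA on Poly(Glu,Ala,Tyr) 6:3:1-coated plates with 2 mM ATP and 5 mM MgCl2. JAK enzyme started the reaction, run 60 min at 30° C. Phosphotyrosine was detected with HRP-conjugated 4G10 antibody and TMB, read at 450 nm, and IC50 was derived from optical densities.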

For assay [2], the target named is KDR (Homo sapiens, UniProt P35968). As to the kind of experiment: KDR enzyme assay, coupled enzyme assay. It counts as biochemical. The settings on record: 300 μM ATP, 10 μM poly E4Y, 30 nM KDR, 37° C. The protocol: Compounds were screened for their ability to inhibit KDR using a standard coupled enzyme assay (Fox et al., Protein Sci., (1998) 7, 2249). Assays were carried out in a mixture of 200 mM HEPES 7.5, 10 mM MgCl2, 25 mM NaCl, 1 mM DTT and 1.5% DMSO. Final substrate concentrations in the assay were 300 μM ATP (Sigma Chemicals) and 10 μM poly E4Y (Sigma). Assays were carried out at 37° C. and 30 nM KDR. Final concentrations of the components of the coupled enzyme system were 2.5 mM phosphoenolpyruvate, 200 μM NADH, 30 μg/ML pyruvate kinase and 10 μg/ml lactate dehydrogenase.
Chain of KDR (P35968 20-1356): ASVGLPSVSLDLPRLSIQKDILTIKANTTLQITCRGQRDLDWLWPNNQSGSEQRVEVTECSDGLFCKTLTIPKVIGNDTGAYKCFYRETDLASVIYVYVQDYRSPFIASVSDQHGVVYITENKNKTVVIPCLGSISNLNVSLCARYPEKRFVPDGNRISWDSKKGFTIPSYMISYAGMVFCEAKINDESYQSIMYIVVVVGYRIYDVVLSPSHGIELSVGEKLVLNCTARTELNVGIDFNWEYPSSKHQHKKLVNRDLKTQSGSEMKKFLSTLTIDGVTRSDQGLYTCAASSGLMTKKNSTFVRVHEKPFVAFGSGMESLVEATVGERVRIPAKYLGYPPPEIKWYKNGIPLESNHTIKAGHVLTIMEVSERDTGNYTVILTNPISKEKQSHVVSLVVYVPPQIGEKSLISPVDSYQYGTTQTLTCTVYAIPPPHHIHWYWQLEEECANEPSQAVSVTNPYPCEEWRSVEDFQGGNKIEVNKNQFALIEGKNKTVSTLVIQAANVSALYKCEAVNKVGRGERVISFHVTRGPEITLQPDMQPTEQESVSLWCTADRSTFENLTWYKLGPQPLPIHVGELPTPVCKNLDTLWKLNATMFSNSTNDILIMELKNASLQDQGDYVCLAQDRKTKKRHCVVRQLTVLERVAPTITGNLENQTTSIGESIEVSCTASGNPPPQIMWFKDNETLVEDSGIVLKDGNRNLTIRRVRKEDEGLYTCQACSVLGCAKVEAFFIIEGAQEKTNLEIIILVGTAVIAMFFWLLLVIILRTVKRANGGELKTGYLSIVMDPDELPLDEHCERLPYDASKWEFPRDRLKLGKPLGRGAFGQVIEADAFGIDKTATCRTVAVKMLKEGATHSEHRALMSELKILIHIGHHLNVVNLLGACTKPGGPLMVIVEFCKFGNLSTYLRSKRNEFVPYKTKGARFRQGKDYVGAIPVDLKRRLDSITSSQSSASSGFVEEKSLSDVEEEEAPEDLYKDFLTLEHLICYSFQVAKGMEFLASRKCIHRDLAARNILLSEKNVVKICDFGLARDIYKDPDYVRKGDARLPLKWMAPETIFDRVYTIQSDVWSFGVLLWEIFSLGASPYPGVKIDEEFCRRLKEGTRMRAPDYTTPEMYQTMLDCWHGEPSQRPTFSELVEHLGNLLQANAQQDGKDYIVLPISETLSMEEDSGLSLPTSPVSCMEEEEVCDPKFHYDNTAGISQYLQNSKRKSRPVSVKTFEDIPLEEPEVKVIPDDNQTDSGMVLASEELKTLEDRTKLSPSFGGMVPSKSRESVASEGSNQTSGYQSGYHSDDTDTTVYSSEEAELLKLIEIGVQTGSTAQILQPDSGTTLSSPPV
An assay stock buffer solution was prepared containing all of the reagents listed above, with the exception of ATP and the test compound of interest. 177 μl of the stock solution was placed in a 96 well plate followed by addition of 3 μl of 2 mM DMSO stock containing the test compound (final compound concentration 30 μM). The plate was preincubated for about 10 minutes at 37° C. and the reaction initiated by addition of 20 μl of ATP (final concentration 300 μM). Rates of reaction were obtained using a Molecular Devices plate reader (Sunnyvale, Calif.) over a 5 minute read time at 37° C.

Molecules are shown by their SMILES.

As to `COc1cnc2[nH]cc(-c3oncc3-c3cccc(F)c3F)c2c1` [Compound 38, 3-[4-(2,3-Difluoro-phenyl)-isoxazol-5-yl]-5-methoxy-1H-pyrrolo[2,3-b]pyridine], the Ki in assay [1] is below 200 nM; in assay [2] it was 200 to 1000 nM.
For `CS(=O)(=O)Nc1ccc(-c2cnc3[nH]cc(-c4oncc4-c4cccc(F)c4F)c3c2)cc1` [Compound 98, N-(4-{3-[4-(2,3-Difluoro-phenyl)-isoxazol-5-yl]-1H-pyrrolo[2,3-b]pyridin-5-yl}-phenyl)-methane sulfonamide], in that order: below 200 nM and below 200 nM.
For `COC(=O)c1cnc2[nH]cc(-c3oncc3-c3cccc(F)c3F)c2c1` [Compound 105, 3-[4-(2,3-Difluoro-phenyl)-isoxazol-5-yl]-1H-pyrrolo[2,3-b]pyridine-5-carboxylic acid methyl ester], in that order: below 200 nM and 200 to 1000 nM.
With `Fc1cccc(-c2cnoc2-c2c[nH]c3ncc(-c4ccccn4)cc23)c1F` [Compound 73, 3-(4-(2,3-Difluoro-phenyl)-isoxazol-5-yl)-5-pyridin-2-yl-1H-pyrrolo[2,3-b]pyridine], the inhibition constant (Ki) is below 200 nM in assay [1] and 1000 to 12500 nM in assay [2].
For `Oc1cccc(-c2cnc3[nH]cc(-c4oncc4-c4cccc(F)c4F)c3c2)c1` [Compound 87, 3-{3-[4-(2,3-Difluoro-phenyl)-isoxazol-5-yl]-1H-pyrrolo [2,3-b]pyridin-5-yl}-phenol], in that order: below 200 nM and 200 to 1000 nM.
Consider `CN(C)Cc1ccc(-c2cnc3[nH]cc(-c4oncc4-c4cccc(F)c4F)c3c2)cc1` [Compound 91, (4-{3-[4-(2,3-Difluoro-phenyl)-isoxazol-5-yl]-1H-pyrrolo[2,3-b]pyridin-5-yl}-benzyl)-dimethyl-amine], for which the inhibition constant Ki in assay [1] is below 200 nM; in assay [2], 200 to 1000 nM.
For `Fc1cccc(-c2cnoc2-c2c[nH]c3ncc(Br)cc23)c1F` [Compound 37, 5-Bromo-3-[4-(2,3-difluoro-phenyl)-isoxazol-5-yl]-1H-pyrrolo[2,3-b]pyridine], in that order: below 200 nM and 200 to 1000 nM.
For `Fc1cccc(-n2cnnc2-c2c[nH]c3ncc(-c4cccnc4)cc23)c1F` [Compound 113, 3-[4-(2,3-Difluoro-phenyl)-4H-[1,2,4]triazol-3-yl]-5-pyridin-3-yl-1H-pyrrolo[2,3-b]pyridine], in that order: 1000 to 12500 nM and 200 to 1000 nM.
For the molecule `CN(C)C1CC=C(c2cnc3[nH]cc(-c4oncc4-c4cccc(F)c4F)c3c2)CC1` (stereo not shown) [Compound 138, (4-{3-[4-(2,3-Difluoro-phenyl)-isoxazol-5-yl]-1H-pyrrolo[2,3-b]pyridin-5-yl}-cyclohex-3-enyl)-dimethyl-amine], the inhibitory constant (Ki) in assay [1] and in assay [2] was below 200 nM in each case.
For `Fc1cccc(-c2cnoc2-c2c[nH]c3ncc(-c4c[nH]cn4)cc23)c1F` [Compound 76, 3-[4-(2,3-Difluoro-phenyl)-isoxazol-5-yl]-5-(3H-imidazol-4-yl)-1H-pyrrolo[2,3-b]pyridine], the results for the Ki in assay [1] and in assay [2] were below 200 nM and 200 to 1000 nM, respectively.
For `CN1CCCN(c2ccc(-c3cnc4[nH]cc(-c5nncn5-c5cccc(F)c5F)c4c3)cn2)CC1` [Compound 117, 3-[4-(2,3-Difluoro-phenyl)-4H-[1,2,4]triazol-3-yl]-5-[6-(4-methyl-[1,4]diazepan-1-yl)-pyridin-3-yl]-1H-pyrrolo [2,3-b]-pyridine], the Ki in assay [1] lay in the range of 1000 to 12500 nM; in assay [2] it was 200 to 1000 nM.
For `Fc1c(Cl)cccc1-c1cnoc1-c1c[nH]c2ncccc12` [Compound 42, 3-[4-(3-Chloro-2-fluoro-phenyl)-isoxazol-5-yl]-1H-pyrrolo[2,3-b]pyridine], in that order: 200 to 1000 nM and 200 to 1000 nM.
For `CN(C)Cc1cc(Cl)nc(-c2cnc3[nH]cc(-c4oncc4-c4cccc(F)c4F)c3c2)c1` [Compound 81, (2-Chloro-6-{3-[4-(2,3-difluoro-phenyl)-isoxazol-5-yl]-1H-pyrrolo[2,3-b]pyridin-5-yl}-pyridin-4-ylmethyl)-dimethyl-amine], in that order: 200 to 1000 nM and below 200 nM.
For `Oc1cnc2[nH]cc(-c3oncc3-c3cccc(F)c3F)c2c1` [Compound 43, 3-[4-(2,3-Difluoro-phenyl)-isoxazol-5-yl]-1H-pyrrolo[2,3-b]pyridin-5-ol], in that order: below 200 nM and 200 to 1000 nM.
`CN1CCN(c2ccc(-c3cnc4[nH]cc(-c5oncc5-c5cccc(F)c5F)c4c3)cn2)CC1` [Compound 71, 3-[4-(2,3-Difluoro-phenyl)-isoxazol-5-yl]-5-[6-(4-methyl-piperazin-1-yl)-pyridin-3-yl]-1H-pyrrolo[2,3-b]pyridine]: the Ki in assay [1] and in assay [2] was below 200 nM each time.
In the case of `Fc1cccc(-c2cnoc2-c2c[nH]c3ncc(-c4ncccn4)cc23)c1F` [Compound 75, 3-[4-(2,3-Difluoro-phenyl)-isoxazol-5-yl]-5-pyrimidin-2-yl-1H-pyrrolo[2,3-b]pyridine], the inhibitory constant (Ki) was below 200 nM in assay [1] and 200 to 1000 nM in assay [2].
For `Fc1ccc(-c2cnc3[nH]cc(-c4oncc4-c4cccc(F)c4F)c3c2)cn1` [Compound 69, 3-[4-(2,3-Difluoro-phenyl)-isoxazol-5-yl]-5-(6-fluoro-pyridin-3-yl)-1H-pyrrolo[2,3-b]pyridine], in that order: 200 to 1000 nM and below 200 nM.
Regarding `Fc1ccc(-c2cnoc2-c2c[nH]c3ncccc23)c(F)c1F` [Compound 40, 3-[4-(2,3,4-Trifluoro-phenyl)-isoxazol-5-yl]-1H-pyrrolo [2,3-b]pyridine], the Ki in assay [1] was 1000 to 12500 nM; in assay [2] it was 200 to 1000 nM.
For `Fc1cccc(-c2cnoc2-c2c[nH]c3ncc(C4=CCC(N5CCOCC5)CC4)cc23)c1F` (stereo not shown) [Compound 139, 3-[4-(2,3-Difluoro-phenyl)-isoxazol-5-yl]-5-(4-morpholin-4-yl-cyclohex-1-enyl)-1H-pyrrolo[2,3-b]pyridine], in that order: below 200 nM and 200 to 1000 nM.
For `Fc1cccnc1-c1cnc2[nH]cc(-c3oncc3-c3cccc(F)c3F)c2c1` [Compound 74, 3-[4-(2,3-Difluoro-phenyl)-isoxazol-5-yl]-5-(3-fluoro-pyridin-2-yl)-1H-pyrrolo[2,3-b]pyridine], in that order: 200 to 1000 nM and 1000 to 12500 nM.
For `Fc1cccc(-c2cnoc2-c2c[nH]c3ncc(-c4ccccc4)cc23)c1F` [Compound 58, 3-[4-(2,3-Difluoro-phenyl)-isoxazol-5-yl]-5-phenyl-1H-pyrrolo[2,3-b]pyridine], in that order: below 200 nM and below 200 nM.
`NC1CC=C(c2cnc3[nH]cc(-c4oncc4-c4cccc(F)c4F)c3c2)CC1` (stereo not shown) [Compound 137, 4-{3-[4-(2,3-Difluoro-phenyl)-isoxazol-5-yl]-1H-pyrrolo [2,3-b]pyridin-5-yl}-cyclohex-3-enylamine]: the inhibitory constant (Ki) in assay [1] and in assay [2] was below 200 nM each time.
As for `CN(C)Cc1ccc(-c2cnc3[nH]cc(-c4oncc4-c4cccc(F)c4F)c3c2)nc1` [Compound 84, (6-{3-[4-(2,3-Difluoro-phenyl)-isoxazol-5-yl]-1H-pyrrolo[2,3-b]pyridin-5-yl}-pyridin-3-ylmethyl)-dimethyl-amine], the Ki in assay [1] and in assay [2] was below 200 nM throughout.
